Assay results as given in PubChem BioAssay AID1963963 (Molecular Pharmacology Branch, DTP, NCI, 2024).

System: 958667-338-R-J2-PDC tumor spheroids viability
Test: Anticancer human tumor 958667-338-R-J2-PDC patient-derived colon adenocarcinoma cell line growth inhibition [PI3K]
Details: spheroids with HUVEC and MSC; for IC50: curve of first compound; for viability, T/C: stronger effect = lower value
Summary of the method: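 Spheroid viability read-out. Co-cultures contained the tumor line plus HUVEC and human MSCs. Each agent was paired with a PI3K inhibitor (inavolisib, alpelisib, duvelisib, copanlisib) across half-log dilutions starting at clinical Cmax, or at 10 microM when Cmax was unknown.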

[1] = second compound 0.0316 µM, first compound 0.0316 µM
[2] = second compound 0.0316 µM, first compound 0.1 µM
[3] = second compound 0.0316 µM, first compound 0.316 µM
[4] = second compound 0.0316 µM, first compound 1 µM
[5] = second compound 0.0316 µM, first compound 3.16 µM
[6] = second compound 0.0316 µM, first compound 10 µM
[7] = second compound 0.1 µM, first compound 0.0316 µM
[8] = second compound 0.1 µM, first compound 0.1 µM
[9] = second compound 0.1 µM, first compound 0.316 µM
[10] = second compound 0.1 µM, first compound 1 µM
[11] = second compound 0.1 µM, first compound 3.16 µM
[12] = second compound 0.1 µM, first compound 10 µM
[13] = second compound 0.316 µM, first compound 0.0316 µM
[14] = second compound 0.316 µM, first compound 0.1 µM
[15] = second compound 0.316 µM, first compound 0.316 µM
[16] = second compound 0.316 µM, first compound 1 µM
[17] = second compound 0.316 µM, first compound 3.16 µM
[18] = second compound 0.316 µM, first compound 10 µM
[19] = second compound 1 µM, first compound 0.0316 µM
[20] = second compound 1 µM, first compound 0.1 µM
[21] = second compound 1 µM, first compound 0.316 µM
[22] = second compound 1 µM, first compound 1 µM
[23] = second compound 1 µM, first compound 3.16 µM
[24] = second compound 1 µM, first compound 10 µM
[25] = second compound 3.16 µM, first compound 0.0316 µM
[26] = second compound 3.16 µM, first compound 0.1 µM
[27] = second compound 3.16 µM, first compound 0.316 µM
[28] = second compound 3.16 µM, first compound 1 µM
[29] = second compound 3.16 µM, first compound 3.16 µM
[30] = second compound 3.16 µM, first compound 10 µM
[31] = second compound 10 µM, first compound 0.0316 µM
[32] = second compound 10 µM, first compound 0.1 µM
[33] = second compound 10 µM, first compound 0.316 µM
[34] = second compound 10 µM, first compound 1 µM
[35] = second compound 10 µM, first compound 3.16 µM
[36] = second compound 10 µM, first compound 10 µM
[37] = second compound 0.0316 µM, first compound 0.00316 µM
[38] = second compound 0.0316 µM, first compound 0.01 µM
[39] = second compound 0.1 µM, first compound 0.00316 µM
[40] = second compound 0.1 µM, first compound 0.01 µM
[41] = second compound 0.316 µM, first compound 0.00316 µM
[42] = second compound 0.316 µM, first compound 0.01 µM
[43] = second compound 1 µM, first compound 0.00316 µM
[44] = second compound 1 µM, first compound 0.01 µM
[45] = second compound 3.16 µM, first compound 0.00316 µM
[46] = second compound 3.16 µM, first compound 0.01 µM
[47] = second compound 10 µM, first compound 0.00316 µM
[48] = second compound 10 µM, first compound 0.01 µM
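Also: spheroids exposed to compounds for seven days before readout.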

## CC(C)NCC(C(=O)N1CCN(c2ncnc3c2C(C)CC3O)CC1)c1ccc(Cl)cc1 (stereo not drawn) + Cc1nc(NC(=O)N2CCCC2C(N)=O)sc1-c1ccnc(C(C)(C)C(F)(F)F)c1
Second compound 0.0316 µM
  IC50: > 10000 nM
Second compound 0.1 µM
  IC50: > 10000 nM
Second compound 0.316 µM
  IC50: > 10000 nM
Second compound 1 µM
  IC50: > 10000 nM
Second compound 3.16 µM
  IC50: 8170 nM
Second compound 10 µM
  IC50: 2360 nM
[1]
  viability, T/C: 108%
[2]
  viability, T/C: 99.3%
[3]
  viability, T/C: 96.3%
[4]
  viability, T/C: 104%
[5]
  viability, T/C: 91.8%
[6]
  viability, T/C: 64.6%
[7]
  viability, T/C: 99.4%
[8]
  viability, T/C: 110%
[9]
  viability, T/C: 95.6%
[10]
  viability, T/C: 102%
[11]
  viability, T/C: 102%
[12]
  viability, T/C: 60.7%
[13]
  viability, T/C: 90.7%
[14]
  viability, T/C: 103%
[15]
  viability, T/C: 104%
[16]
  viability, T/C: 85.2%
[17]
  viability, T/C: 86.9%
[18]
  viability, T/C: 62.1%
[19]
  viability, T/C: 107%
[20]
  viability, T/C: 74.2%
[21]
  viability, T/C: 87.4%
[22]
  viability, T/C: 75.5%
[23]
  viability, T/C: 89.9%
[24]
  viability, T/C: 73.5%
[25]
  viability, T/C: 74.7%
[26]
  viability, T/C: 68.3%
[27]
  viability, T/C: 71.8%
[28]
  viability, T/C: 76.7%
[29]
  viability, T/C: 68.5%
[30]
  viability, T/C: 45.9%
[31]
  viability, T/C: 57.8%
[32]
  viability, T/C: 66.5%
[33]
  viability, T/C: 57.2%
[34]
  viability, T/C: 62.5%
[35]
  viability, T/C: 46.2%
[36]
  viability, T/C: 35.9%

## CCN1CCN(Cc2ccc(Nc3ncc(F)c(-c4cc(F)c5nc(C)n(C(C)C)c5c4)n3)nc2)CC1 + Cc1nc(NC(=O)N2CCCC2C(N)=O)sc1-c1ccnc(C(C)(C)C(F)(F)F)c1
Second compound 0.0316 µM
  IC50: > 1000 nM
Second compound 0.1 µM
  IC50: > 1000 nM
Second compound 0.316 µM
  IC50: > 1000 nM
Second compound 1 µM
  IC50: 684 nM
Second compound 3.16 µM
  IC50: 29.4 nM
Second compound 10 µM
  IC50: 30.5 nM
[37]
  viability, T/C: 96.6%
[38]
  viability, T/C: 108%
[1]
  viability, T/C: 93.5%
[2]
  viability, T/C: 81.5%
[3]
  viability, T/C: 64.7%
[4]
  viability, T/C: 73.9%
[39]
  viability, T/C: 97.6%
[40]
  viability, T/C: 112%
[7]
  viability, T/C: 85%
[8]
  viability, T/C: 77.1%
[9]
  viability, T/C: 86.1%
[10]
  viability, T/C: 70.4%
[41]
  viability, T/C: 85.5%
[42]
  viability, T/C: 86%
[13]
  viability, T/C: 79.7%
[14]
  viability, T/C: 84.6%
[15]
  viability, T/C: 68%
[16]
  viability, T/C: 61.8%
[43]
  viability, T/C: 94.5%
[44]
  viability, T/C: 67.4%
[19]
  viability, T/C: 72.8%
[20]
  viability, T/C: 59.7%
[21]
  viability, T/C: 57.4%
[22]
  viability, T/C: 45.5%
[45]
  viability, T/C: 66.4%
[46]
  viability, T/C: 86.1%
[25]
  viability, T/C: 48.1%
[26]
  viability, T/C: 47.1%
[27]
  viability, T/C: 47.9%
[28]
  viability, T/C: 35.8%
[47]
  viability, T/C: 54.2%
[48]
  viability, T/C: 60.8%
[31]
  viability, T/C: 44.7%
[32]
  viability, T/C: 46.5%
[33]
  viability, T/C: 36.5%
[34]
  viability, T/C: 31.3%

## C[C@@H](NC(=O)c1ncnc(N)c1Cl)c1ncc(C(=O)Nc2cc(C(F)(F)F)c(Cl)cn2)s1 + Cc1nc(NC(=O)N2CCCC2C(N)=O)sc1-c1ccnc(C(C)(C)C(F)(F)F)c1
Second compound 0.0316 µM
  IC50: > 10000 nM
Second compound 0.1 µM
  IC50: > 10000 nM
Second compound 0.316 µM
  IC50: > 10000 nM
Second compound 1 µM
  IC50: > 10000 nM
Second compound 3.16 µM
  IC50: > 10000 nM
Second compound 10 µM
  IC50: 3290 nM
[1]
  viability, T/C: 97.2%
[2]
  viability, T/C: 121%
[3]
  viability, T/C: 115%
[4]
  viability, T/C: 88.6%
[5]
  viability, T/C: 87.8%
[6]
  viability, T/C: 89.2%
[7]
  viability, T/C: 119%
[8]
  viability, T/C: 126%
[9]
  viability, T/C: 113%
[10]
  viability, T/C: 108%
[11]
  viability, T/C: 107%
[12]
  viability, T/C: 94.9%
[13]
  viability, T/C: 101%
[14]
  viability, T/C: 85%
[15]
  viability, T/C: 106%
[16]
  viability, T/C: 111%
[17]
  viability, T/C: 94.7%
[18]
  viability, T/C: 90.2%
[19]
  viability, T/C: 87%
[20]
  viability, T/C: 95.8%
[21]
  viability, T/C: 116%
[22]
  viability, T/C: 94.9%
[23]
  viability, T/C: 81.6%
[24]
  viability, T/C: 75.7%
[25]
  viability, T/C: 77.9%
[26]
  viability, T/C: 86.9%
[27]
  viability, T/C: 82.8%
[28]
  viability, T/C: 90.4%
[29]
  viability, T/C: 89.8%
[30]
  viability, T/C: 57.9%
[31]
  viability, T/C: 79.4%
[32]
  viability, T/C: 82.5%
[33]
  viability, T/C: 76.6%
[34]
  viability, T/C: 71.3%
[35]
  viability, T/C: 50.7%
[36]
  viability, T/C: 28.2%

## Cn1ncnc1[C@H]1c2n[nH]c(=O)c3cc(F)cc(c23)N[C@@H]1c1ccc(F)cc1 + Cc1nc(NC(=O)N2CCCC2C(N)=O)sc1-c1ccnc(C(C)(C)C(F)(F)F)c1
Second compound 0.0316 µM
  IC50: > 100 nM
Second compound 0.1 µM
  IC50: > 100 nM
Second compound 0.316 µM
  IC50: > 100 nM
Second compound 1 µM
  IC50: > 100 nM
Second compound 3.16 µM
  IC50: > 100 nM
Second compound 10 µM
  IC50: > 100 nM
Second compound 0.0316 µM, first compound 0.000316 µM
  viability, T/C: 98.7%
Second compound 0.0316 µM, first compound 0.001 µM
  viability, T/C: 92%
[37]
  viability, T/C: 113%
[38]
  viability, T/C: 106%
[1]
  viability, T/C: 94.5%
[2]
  viability, T/C: 107%
Second compound 0.1 µM, first compound 0.000316 µM
  viability, T/C: 98%
Second compound 0.1 µM, first compound 0.001 µM
  viability, T/C: 96.7%
[39]
  viability, T/C: 83.2%
[40]
  viability, T/C: 101%
[7]
  viability, T/C: 91.7%
[8]
  viability, T/C: 93%
Second compound 0.316 µM, first compound 0.000316 µM
  viability, T/C: 81.4%
Second compound 0.316 µM, first compound 0.001 µM
  viability, T/C: 109%
[41]
  viability, T/C: 82.4%
[42]
  viability, T/C: 102%
[13]
  viability, T/C: 87%
[14]
  viability, T/C: 71.2%
Second compound 1 µM, first compound 0.000316 µM
  viability, T/C: 83.2%
Second compound 1 µM, first compound 0.001 µM
  viability, T/C: 86.4%
[43]
  viability, T/C: 101%
[44]
  viability, T/C: 82.6%
[19]
  viability, T/C: 78.4%
[20]
  viability, T/C: 79.5%
Second compound 3.16 µM, first compound 0.000316 µM
  viability, T/C: 78.4%
Second compound 3.16 µM, first compound 0.001 µM
  viability, T/C: 78.7%
[45]
  viability, T/C: 85.8%
[46]
  viability, T/C: 72.5%
[25]
  viability, T/C: 82.8%
[26]
  viability, T/C: 91.3%
Second compound 10 µM, first compound 0.000316 µM
  viability, T/C: 57.9%
Second compound 10 µM, first compound 0.001 µM
  viability, T/C: 64.8%
[47]
  viability, T/C: 73.3%
[48]
  viability, T/C: 60.8%
[31]
  viability, T/C: 72.7%
[32]
  viability, T/C: 60.8%
